Patent US8846914B2, “Compositions to effect neuronal growth” (Neuralstem, Inc., priority 2003, dated 2014)
Read-outs that look alike come from different tables or passages of the source.

Experiments:
[1] = tested on: Differentiating hippocampal human stem cells; assay: Long-term treatment in vitro neurogenesis; format: cell-based; conditions: for activity at 10 µM: Homo sapiens, 504 h, three weeks, 5× with 10 μM, compared to the control; for Further increase in neuron numbers over long-term treatment: FIG. 11, compared to one week of treatment
Description: FIG. 11 is a bar graph illustrating an example of in vitro neurogenesis profile of the compounds for a long-term treatment. Differentiating hippocampal human stem cells mere treated with vehicle alone or with the test compounds for three weeks. Increase in cell number was determined compared to the control. Shown are several examples that are effective in continued neurogenesis. Bars represent mean+/−SD from six wells.
In another in vitro assay, compounds of the fused imidazole, iminopyrimidine, nicotinamide, aminomethyl phenoxypiperidine and aryloxypiperidine types are evaluated for their effect on the differentiation of the culture-born cells to mature neurons. More particularly, multipotent human hippocampal stem cells are treated in three doses over a one-week period in N2b media and in the presence of an agent of the type mentioned above. The cells are then fed twice weekly for approximately two more weeks in N2b or Neuralbasal+B27 Media (Gibco) and then cells are fixed using 4% paraformaldehyde. Cells are washed 3× with PBS (pH 7.4) and then stained using a nuclear stain (Hoechst or DAPI) and a mature neuronal marker, MAP-2ab (AP-20) antibody. A secondary antibody, Alexa Fluor 488 labeled goat anti-mouse IgG, is used to identify by fluorescent labeling the mature neurons. The fluorescent intensity and number of cells labeled in a multi-plate format can be measured using for instance a Array Scan II (Cellomics) or similar instrumentation.
Effects of the long-term NSI compound treatment on human hippocampal stem cells in the absence of mitogen is illustrated in FIG. 11. In FIG. 11, differentiating hippocampal human stem cells are treated with vehicle alone or with the test compounds for three weeks. Increase in cell number was determined compared to the control. Bars represent mean+/−SD from six wells. […] Several examples of NSI compounds are shown to be effective in continued neurogenesis. […] These agents comprise a class of compounds, aminopyrimidines, that, as shown previously, inhibited apoptosis. Accordingly, the aminopyrimidine class of compounds appear ideally suited for neurodegenerative long-term diseases including Alzheimer's disease and aging. Neurogenic agents that are neuroprotective like the sixteen compounds identified above might also be effective therapeutics for other neurodegenerative diseases in mammals including, but not limited to, stroke, traumatic brain injury, Parkinson's disease, and mild cognitive impairment.

[2] = tested on: human hippocampal stem cells; assay: Neurogenesis, TuJ1 immunostaining / Hoechst (primary screen); format: cell-based; conditions: seven days of compound treatment; for Neuron Number (% of Control): TuJ1+ neurons per area; for Neuron Ratio (% of Control): ratio neuron:total cells (TuJ1/Hoechst)
Description: FIG. 2 is a bar graph illustrating an example of a neurogenesis profile of compounds selected from primary screening. After seven days of compound treatment, the cells were stained with the neuron-specific anti-tubulin IIIb antibody. TuJ1, for neurons and Hoechst for all cell nuclei. Shown are the relative ratio of neuron: total cells for each compound over the vehicle control in percentage. Typical ratio for vehicle control is 40-50% neurons. The ratio can change by either increased differentiation of stem cells to neurons, decreased proliferation of astrocytes, or increased proliferation of neuronal progenitors.
FIG. 3 is a bar graph illustrating an example of a neurogenesis profile of compounds selected from primary screening. After seven days of compound treatment, the cells were stained with TuJ1 for neurons. The number of TuJ1+ neurons per area was quantified and expressed as a relative value to the vehicle treated control.
The final neuron number is detected by immunostaining of the culture with antibodies against neurons and is quantified by counting of the immunopositive neurons and/or by measuring the staining intensity. Therefore, after seven days of compound treatment, the cells are stained with the neuron-specific anti-tubulin IIIb antibody, TuJ1, for neurons and Hoechst for all cell nuclei. The number of TuJ1+ neurons per area is quantified and expressed as a value relative to the vehicle-treated control of Hoechst-stained cells. In this regard, the medium is removed from the wells by decanting and blotting the plates on paper towels. The cells are then fixed in 100 μl of 4% paraformaldehyde per well for thirty minutes at room temperature. The cells are washed three times with 400 μl per well of phosphate-buffered saline (PBS) at pH 7.5 for approximately ten minutes per wash. The plates are then stored at 4° C. in PBS or used immediately for staining.
The cells are subsequently stained with antibodies against neuron-specific antigens according to standard procedures. The staining process includes decanting the PBS and blocking the cells with 100 μl of 5% Normal Goat Serum (NGS) in PBS for one hour at room temperature. The NGS/PBS is decanted and the plates are blotted on a paper towel. The cells are then permeabilized with 0.1% Triton X-100 in PBS for 30 minutes at room temperature.
Typical neuron-specific antigens include Type III-beta tubulin and MAP-2c. The total cell number in each well was quantified by staining the cultures with a nuclear dye such as DAPI or Hoechst according to standard procedures. Therefore, once the cells are permeabilized, 20 μl of TuJ1, monoclonal antibody against neuronal class 111 β-tubulin (CoVance (BabCo) MMS-435P) and 32 μl of anti-GFAP polyclonal (DAKO Z0334) are added to and mixed of PBS with 5% NGS. Final dilutions of TuJ1 and anti-GFAP are 1:400 and 1:250, respectively. 90 μl of the antibody solution is added to each well except two eleventh column. 90 μl of PBS/5% NGS is added to the eleventh column and no cells are added to the twelfth column. The plate(s) are sealed with parafilm and incubated at 4° C. overnight.
After incubating the cells overnight, the antibody solution is decanted and 200 μl of PBS/0.1% Triton X-100 is added to the wells. The plate(s) are placed on a shaker and incubated at room temperature with gentle shaking for ten minutes. The cells are again washed with the PBS/Triton X-100 solution another two times.
Following staining with TuJ1 and anti-GFAP, 20 μl of Alexa Fluor 488 labeled goat anti-moose IgG (H+L) (Molecular Probes A-11001) and 100 μl of LRSC-IgG, goat anti-rabbit (Jackson Immune 111-295-144) is added and mixed with 10 ml of PBS/5% NGS. 100 μl of the resulting antibody solution is added to each well. The plate(s) are covered with foil and incubated with gentle shaking for up to one hour at room temperature. The cells are again washed as described above with PBS and an Triton X-100. […]

[3] = read-out: Long Term Treatment #Neur
[4] = read-out: Long Term Treatment Neur Ratio
[5] = read-out: Long Term Treatment Prolif

SMILES | activity at 10 µM [1, 3] [%] | activity at 10 µM [1, 4] [%] | activity at 10 µM [1, 5] [%] | Neuron Number (% of Control) [2] | Neuron Ratio (% of Control) [2] | Further increase in neuron numbers over long-term treatment [1]
CCCCNc1c(C2CCN(C(=O)CN(CC(C)C)S(C)(=O)=O)CC2)nc2cnccn12 [NSI-106] | 137 ± 8 | 120 ± 5 | 92 ± 3 | 77 ± 12 % of Control | 92 ± 6 % of Control | –
CS(=O)(=O)N1CCCCC1C(=O)NCc1ccc(Nc2c(C3CC3)nc3ccccn23)cc1 (stereo not shown) [NSI-127] | 135 ± 21 | 131 ± 15 | 103 ± 8 | 81 ± 13 % of Control | 104 ± 8 % of Control | –
COc1ccc(CCNc2ncc(C(N)=O)c(NC3CC3)n2)cc1OC [NSI-130] | 128 ± 30 | 92 ± 12 | 115 ± 11 | 124 ± 8 % of Control | 128 ± 4 % of Control | effective in stimulating further increases in neuron numbers
CCCNc1ncc(C(N)=O)c(NC2CCCC2)n1 [NSI-137] | 139 ± 35 | 98 ± 18 | 111 ± 10 | 151 ± 40 % of Control | 116 ± 8 % of Control | –
O=C(c1cccnc1N1CCNCC1)N1CCN(Cc2ccncc2)CC1 [NSI-142] | 146 ± 34 | 120 ± 21 | 105 ± 26 | 152 ± 22 % of Control | 125 ± 15 % of Control | –
O=C(NC1CCN(Cc2ccccc2)CC1)c1cccnc1N1CCNCC1 [NSI-143] | 102 ± 14 | 103 ± 12 | 153 ± 33 | 143 ± 6 % of Control | 130 ± 14 % of Control | –
NC(=O)c1cnc(NCc2ccc(Cl)cc2)nc1NCC1CCCCC1 [NSI-144] | 170 ± 46 | 123 ± 12 | 97 ± 21 | 179 ± 29 % of Control | 137 ± 8 % of Control | effective in stimulating further increases in neuron numbers
CCCCNc1c(C2CCN(C(=O)c3ccc(C#N)cc3)CC2)nc2ccccn12 [NSI-149] | 171 ± 19 | 143 ± 11 | 89 ± 13 | 113 ± 16 % of Control | 100 ± 6 % of Control | –
C=CCNC(=O)c1cccnc1NCc1ccccc1OC [NSI-150] | 120 ± 10 | 105 ± 7 | 110 ± 25 | 107 ± 29 % of Control | 99 ± 6 % of Control | –
CC(C)(C)OC(=O)NCCNC(=O)c1cccnc1NCC1CCCCC1 [NSI-157] | 139 ± 43 | 107 ± 22 | 146 ± 19 | 135 ± 15 % of Control | 142 ± 6 % of Control | –
NC(=O)C1CCCN1C(=O)c1cccnc1NCC1CCCCC1 (stereo not shown) [NSI-158] | 141 ± 24 | 114 ± 14 | 99 ± 6 | 93 ± 17 % of Control | 106 ± 9 % of Control | –
O=C(NCc1nc2ccccn2c1NCC1CCCO1)Oc1ccccc1 (stereo not shown) [NSI-182] | 121 ± 13 | 111 ± 13 | 95 ± 6 | 95 ± 9 % of Control | 125 ± 10 % of Control | –
O=C(COc1ccccc1)NCc1nc2ccccn2c1NCC1CCCO1 (stereo not shown) [NSI-183] | 148 ± 30 | 111 ± 16 | 99 ± 19 | 128 ± 13 % of Control | 131 ± 4 % of Control | –
CS(=O)(=O)N(CC(=O)NCc1nc2ccccn2c1NCc1ccccc1)c1ccccc1 [NSI-185] | 155 ± 30 | 105 ± 19 | 83 ± 25 | 141 ± 70 % of Control | 135 ± 15 % of Control | –
CC(C)CCNc1ncccc1C(=O)N1CCN(Cc2ccccc2)CC1 [NSI-189] | 110 ± 26 | 96 ± 19 | 144 ± 17 | 102 ± 41 % of Control | 130 ± 19 % of Control | –
CCN(CCNC(=O)c1cccnc1NCCC(C)C)Cc1cccnc1 [NSI-190] | 121 ± 19 | 100 ± 12 | 98 ± 11 | 130 ± 22 % of Control | 127 ± 9 % of Control | –
